This is an account of results in publication PMC4975316 (EJIFCC, 2011).

This test deals with T1, β2GPI (Homo sapiens, UniProt P02749).
T1 sequence (P02749 20-345): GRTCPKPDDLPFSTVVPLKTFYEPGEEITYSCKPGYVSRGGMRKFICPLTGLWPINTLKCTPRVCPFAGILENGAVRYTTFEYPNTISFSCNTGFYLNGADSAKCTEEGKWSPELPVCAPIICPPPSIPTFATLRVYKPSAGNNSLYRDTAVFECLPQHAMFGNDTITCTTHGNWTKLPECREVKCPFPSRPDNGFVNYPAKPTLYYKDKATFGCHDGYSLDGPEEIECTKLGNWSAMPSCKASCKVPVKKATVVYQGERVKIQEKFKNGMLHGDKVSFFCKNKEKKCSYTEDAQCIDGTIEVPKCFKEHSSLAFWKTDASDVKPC
Kind of test: Surface plasmon resonance. The test is classed as binding. Particulars: inferred from extremely fast dissociation; 0.005% PBST pH 7.4, 25°C. On the technique in general: In SPR one partner is held on a chip, and binding of the other changes the refractive index at the surface.

As to KVWTIPRGGGS, the “Affinity towards β2GPI indicated by dissociation (SPR)” value is given as “low affinity towards β2GPI”.
